Activity calls are given as the source filed them.
Tests used:
[1] = Luminescence Cell-Based Dose Response to Identify Activators of 5'UTR Stem-Loop Driven Prion Protein mRNA Translation in H4-C Neuroglioblastoma Cells. [Related pubchem assays: 1829 (Project Summary), 1814 (Primary HTS)]; type: functional
[2] = Luminescence Cell-Based Dose Response HTS to Identify Activators of Luciferase Translation or Activity in H4 […] Cells. [Related pubchem assays: 1829 (Project Summary), 1814 (Primary HTS)]; type: functional
[3] = Luminescence Cell-Based Dose Response to Identify Activators of Luciferase Translation or Activity in H4-C Neuroglioblastoma Cells. [Related pubchem assays: 1829 (Project Summary), 1814 (Primary HTS)]; type: functional
[4] = Luminescence Cell-Based Dose Confirmation to Identify Activators of 5'UTR Stem-Loop Driven Alpha-Synuclein mRNA Translation in H4 Neuroglioblastoma Cells. [Related pubchem assays: 1829 (Project Summary), 1814 (Primary HTS)]; type: functional
[5] = A cytotoxicity screen of small molecule inhibitors of the PhoP region in Salmonella typhi identified in the primary screen. [Related pubchem assays: 1850, 1864, 1985 ]; type: functional
[6] = target: T1, Estrogen receptor beta (Homo sapiens, UniProt Q92731);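 note: recombinant ER-beta bound to coactivator SRC1 peptide in presence of estradiol agonist; inhibitors block coactivator peptide binding and lower the FRET signal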
[7] = target: T1, Estrogen receptor beta; experiment: ERβ–SRC-3 coactivator interaction inhibitors, confirmation, orthogonal assay, biochemical, ELISA, streptavidin-HRP readout (AID 1060)
[8] = target: T2, Neuropeptides B/W receptor type 1 (Homo sapiens, UniProt P48145); experiment: Fluorescence-based dose response cell-based high throughput screening assay to identify antagonists of the G-protein coupled receptor 7 (GPR7). [Related pubchem assays: 1952 (Screening assay (GPR7 antagonists).), 1880 (Summary AID.)]; type: functional
T2 sequence (P48145 whole entry): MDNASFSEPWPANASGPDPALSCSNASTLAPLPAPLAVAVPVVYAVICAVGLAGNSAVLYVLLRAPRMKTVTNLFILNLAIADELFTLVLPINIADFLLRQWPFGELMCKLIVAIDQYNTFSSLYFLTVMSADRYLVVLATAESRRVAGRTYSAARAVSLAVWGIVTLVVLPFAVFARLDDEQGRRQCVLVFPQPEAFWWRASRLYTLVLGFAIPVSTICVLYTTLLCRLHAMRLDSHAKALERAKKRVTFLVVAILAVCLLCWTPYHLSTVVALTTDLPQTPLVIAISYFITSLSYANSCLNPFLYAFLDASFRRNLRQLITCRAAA

[9] = target: Melanin-concentrating hormone receptor 1 (Homo sapiens, UniProt Q99705); experiment: Fluorescence-based counterscreen for antagonists of the G-protein coupled receptor 7 (GPR7): cell-based high throughput dose response assay to identify antagonists of the melanin-concentrating hormone receptor 1 (MCHR1).; type: functional
[10] = target: Induced myeloid leukemia cell differentiation protein Mcl-1 (Homo sapiens, UniProt Q07820); experiment: MCL1-BIM BH3 interaction inhibitors, dose response, biochemical, fluorescence polarization, BIM-BH3 peptide, 1536-well (AID 2217)
[11] = target: Bcl-2-like protein 1 (Homo sapiens, UniProt Q07817); experiment: BCL-XL inhibitors, dose response, selectivity assay for MCL1 inhibitor project, biochemical, fluorescence polarization, 1536-well (AID 2218)
[12] = system: H4; experiment: Luminescence Cell-Based Dose Response HTS to Identify Activators of 5'UTR Stem-Loop Driven Prion Protein mRNA Translation in H4 Neuroglioblastoma Cells. [Related pubchem assays: 1829 (Project Summary), 1814 (Primary HTS)]; type: functional; conditions: Homo sapiens
[13] = inhibitors of HIV Env-driven cell fusion, dose response, cherry-pick (AID 652057); type: functional, cell-based
[14] = CEM21 lymphoblast cell cytotoxicity, dose response, cytotoxicity control for viral fusion inhibitor project, CellTiter-Glo luminescence, cherry-picked (AID 652042); type: functional, cell-based;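 note: potency for signal decrease meaning cytotoxicity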
[15] = ZM109 Env clade C HIV-1 fusion inhibitors, dose response, HeLa effector, CEM target cells, luciferase, cherry-pick (AID 652058); type: functional, cell-based
[16] = off-target signal loss in HeLa-CEM21 co-culture – HeLa F-luc CTL cells, cherry-picked, counter-screen for HIV-1 Env fusion inhibitor project, dose response (AID 652040); type: functional, cell-based;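 note: potency for signal decrease marking cytotoxic or nonspecific inhibition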
[17] = inhibitors of clade B AD8 Env fusion, dose response, cell-based, cherry-pick (AID 652062); type: functional;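 note: luciferase signal from cell-cell fusion driven by HIV-1 clade B AD8 Env; potency is for inhibitors of fusion seen as a drop in luminescence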
[18] = target: fMet-Leu-Phe receptor (Homo sapiens, UniProt P21462); experiment: FPR ligands, dose response (AID 519); type: functional
[19] = target: T3, Neuropeptide Y receptor type 1 (Homo sapiens, UniProt P25929); type: functional;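 note: HEK293 cells with a CNG channel challenged with NPY then isoproterenol; potency as antagonist that reverses NPY suppression of cAMP signal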
T3 sequence (P25929 whole entry): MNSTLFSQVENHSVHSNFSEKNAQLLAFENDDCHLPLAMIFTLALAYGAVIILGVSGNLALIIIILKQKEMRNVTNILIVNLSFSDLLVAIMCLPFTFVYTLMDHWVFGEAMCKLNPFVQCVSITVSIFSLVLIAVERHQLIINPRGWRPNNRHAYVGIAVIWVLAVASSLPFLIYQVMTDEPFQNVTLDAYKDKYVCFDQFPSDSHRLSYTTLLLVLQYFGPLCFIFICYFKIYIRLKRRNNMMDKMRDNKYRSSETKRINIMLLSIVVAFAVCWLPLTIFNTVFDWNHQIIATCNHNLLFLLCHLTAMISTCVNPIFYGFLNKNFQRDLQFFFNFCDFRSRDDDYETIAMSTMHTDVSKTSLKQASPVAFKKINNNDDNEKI

[20] = target: T4, Neuropeptide Y receptor type 2 (Homo sapiens, UniProt P49146); type: functional, cell-based;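 note: HEK293 cells expressing the receptor and a CNG channel; stimulus was NPY near EC95 followed by isoproterenol to raise cAMP; antagonist potency measured as restoring cAMP signal that NPY suppresses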
T4 sequence (P49146 whole entry): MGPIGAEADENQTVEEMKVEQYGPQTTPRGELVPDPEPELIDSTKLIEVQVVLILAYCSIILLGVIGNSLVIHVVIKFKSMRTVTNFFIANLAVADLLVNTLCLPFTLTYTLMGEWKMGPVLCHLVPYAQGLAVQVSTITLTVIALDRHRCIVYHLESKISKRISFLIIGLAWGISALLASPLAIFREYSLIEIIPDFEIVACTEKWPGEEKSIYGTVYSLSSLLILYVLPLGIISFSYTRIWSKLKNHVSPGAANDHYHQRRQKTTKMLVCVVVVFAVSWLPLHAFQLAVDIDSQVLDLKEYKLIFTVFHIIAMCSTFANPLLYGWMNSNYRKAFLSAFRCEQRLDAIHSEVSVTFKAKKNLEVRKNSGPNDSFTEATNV

[21] = NIH-3T3 fibroblast cytotoxicity, dose response, cytotoxicity control, cell-based, fluorescence, Alamar Blue, secondary assay (AID 2327); type: functional;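 note: NIH-3T3 mouse fibroblasts cultured with fluconazole at 8 µg/mL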
[22] = cells; type: functional, cell-based
[23] = target: T5, Heat shock factor protein 1 (Mus musculus, UniProt P38532); experiment: inhibition of MG132-induced HSE-luciferase signal, confirmation, cell-based, NIH3T3, luminescence, dose retest (AID 2382); type: functional;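 note: NIH3T3 fibroblasts with HSF1-driven luciferase reporter stressed by proteasome inhibitor MG132; luminescence from HSF1-driven luciferase expression after 8 hours of MG132 stress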
T5 sequence (P38532 whole entry): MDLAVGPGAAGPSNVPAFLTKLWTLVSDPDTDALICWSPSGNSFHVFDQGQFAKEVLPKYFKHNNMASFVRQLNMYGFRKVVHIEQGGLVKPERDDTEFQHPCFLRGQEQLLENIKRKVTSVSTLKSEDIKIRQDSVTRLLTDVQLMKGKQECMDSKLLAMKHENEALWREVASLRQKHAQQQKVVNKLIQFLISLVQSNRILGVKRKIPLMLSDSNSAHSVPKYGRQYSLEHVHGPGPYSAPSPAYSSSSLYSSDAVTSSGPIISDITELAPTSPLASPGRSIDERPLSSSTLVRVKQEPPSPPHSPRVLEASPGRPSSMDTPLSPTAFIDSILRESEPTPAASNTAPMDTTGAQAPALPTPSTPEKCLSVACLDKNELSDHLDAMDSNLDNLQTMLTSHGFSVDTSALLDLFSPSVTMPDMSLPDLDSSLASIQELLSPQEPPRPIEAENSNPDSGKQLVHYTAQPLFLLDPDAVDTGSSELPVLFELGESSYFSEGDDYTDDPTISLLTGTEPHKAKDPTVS

[24] = C. albicans growth with fluconazole, confirmation, fluorescence, retest (AID 2467); type: functional, cell-based
[25] = Luminescence-based counterscreen assay for KLF5 inhibitors: dose response cell-based high throughput screening assay to identify cytotoxic compounds using the IEC-6 intestinal epithelial cell line. [Related pubchem assays: 1700 (Primary screen.), 1834 (Confirmation screen.), 1858 (Summary AID.), 1905 (Counterscreen.)]; type: functional
[26] = inhibitors of intracellular T. cruzi replication, confirmation, NIH3T3 host cells, beta-gal luminescence (AID 2044); type: functional, cell-based;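 note: intracellular parasites grown in NIH/3T3 mouse fibroblasts as host cells; luminescent beta-galactosidase reporter signal from transgenic T. cruzi replicating inside host cells; inhibitors lower the luminescence signal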
[27] = cells; type: functional, cell-based; remark: listed apart in the source
[28] = cytotoxicity toward NIH3T3 fibroblasts, dose response, counter-screen, cell-based, ATP luminescence, mouse fibroblasts (AID 2010); type: functional;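 note: cells exposed to compound for about 90 hours before reading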
[29] = target: Nonstructural protein 1 (Influenza A virus, UniProt Q194T2); type: functional, Influenza A virus (A/California/07/2009(H1N1))
[30] = system: INS1; experiment: beta cell apoptosis inhibitors, cytokine rescue, dose response, luminescence, retest (AID 449756); type: functional, cell-based; conditions: Rattus norvegicus;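 note: cell death triggered by IL-1 beta plus TNF-alpha plus IFN-gamma mixture; protective hits raise ATP signal compared with cytokine alone wells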
[31] = target: Paired box protein Pax-8 (Homo sapiens, UniProt Q06710); experiment: inhibitors of PAX8-driven TPO luciferase reporter, dose response, RMG-I cells, cherry-pick (AID 687027); type: functional, cell-based;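 note: luciferase reporter driven by Pax8 target thyroperoxidase promoter measured by SteadyGlo luminescence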
[32] = target: T6, SUMO-activating enzyme (Homo sapiens, UniProt Q9UBT2); experiment: SUMOylation inhibitor hit validation, confirmation, SUMOylation inhibitor project, biochemical, AlphaScreen (AID 2018); type: functional
[33] = target: T6, SUMO-activating enzyme; experiment: inhibitors of in vitro SUMOylation cascade, primary screen, biochemical, HTRF, uHTS (AID 2006); type: protein-complex assay

Sequence of Melanin-concentrating hormone receptor 1 (Q99705 whole entry): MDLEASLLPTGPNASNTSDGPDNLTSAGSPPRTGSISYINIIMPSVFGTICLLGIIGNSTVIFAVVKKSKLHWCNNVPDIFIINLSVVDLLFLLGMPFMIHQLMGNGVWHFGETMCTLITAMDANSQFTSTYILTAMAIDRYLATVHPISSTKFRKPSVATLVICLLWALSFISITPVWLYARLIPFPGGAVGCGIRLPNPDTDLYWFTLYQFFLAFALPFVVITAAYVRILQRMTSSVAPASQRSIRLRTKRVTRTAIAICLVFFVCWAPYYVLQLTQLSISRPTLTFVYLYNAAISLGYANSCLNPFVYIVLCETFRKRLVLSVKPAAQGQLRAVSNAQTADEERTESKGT
T6 sequence (Q9UBE0 whole entry): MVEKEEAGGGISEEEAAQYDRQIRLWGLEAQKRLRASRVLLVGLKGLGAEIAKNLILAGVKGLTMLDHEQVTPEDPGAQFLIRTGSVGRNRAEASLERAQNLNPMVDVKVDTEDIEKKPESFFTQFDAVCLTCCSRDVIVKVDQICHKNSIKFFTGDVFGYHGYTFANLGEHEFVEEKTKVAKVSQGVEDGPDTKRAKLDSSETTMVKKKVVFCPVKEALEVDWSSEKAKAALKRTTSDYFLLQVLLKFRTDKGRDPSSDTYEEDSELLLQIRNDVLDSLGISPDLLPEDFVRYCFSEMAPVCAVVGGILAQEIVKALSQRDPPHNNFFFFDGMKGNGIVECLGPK
T6 sequence (Q9UBT2 whole entry): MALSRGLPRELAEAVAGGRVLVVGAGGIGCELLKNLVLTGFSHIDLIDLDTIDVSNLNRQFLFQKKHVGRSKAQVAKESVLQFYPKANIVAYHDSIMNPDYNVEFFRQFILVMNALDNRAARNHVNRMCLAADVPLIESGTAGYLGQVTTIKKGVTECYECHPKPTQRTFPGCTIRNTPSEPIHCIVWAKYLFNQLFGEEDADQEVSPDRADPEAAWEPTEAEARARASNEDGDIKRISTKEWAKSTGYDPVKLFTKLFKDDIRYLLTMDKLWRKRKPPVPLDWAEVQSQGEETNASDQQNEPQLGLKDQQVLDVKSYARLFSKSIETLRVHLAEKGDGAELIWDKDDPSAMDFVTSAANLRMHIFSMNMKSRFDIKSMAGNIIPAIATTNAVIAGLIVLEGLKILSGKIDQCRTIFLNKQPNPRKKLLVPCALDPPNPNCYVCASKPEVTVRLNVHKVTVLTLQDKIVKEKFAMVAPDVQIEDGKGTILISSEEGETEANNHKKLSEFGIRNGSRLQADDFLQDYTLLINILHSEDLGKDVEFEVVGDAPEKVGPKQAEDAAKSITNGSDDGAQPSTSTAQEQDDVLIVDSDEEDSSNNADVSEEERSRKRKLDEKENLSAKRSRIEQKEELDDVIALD
Sequence of Bcl-2-like protein 1 (Q07817 whole entry): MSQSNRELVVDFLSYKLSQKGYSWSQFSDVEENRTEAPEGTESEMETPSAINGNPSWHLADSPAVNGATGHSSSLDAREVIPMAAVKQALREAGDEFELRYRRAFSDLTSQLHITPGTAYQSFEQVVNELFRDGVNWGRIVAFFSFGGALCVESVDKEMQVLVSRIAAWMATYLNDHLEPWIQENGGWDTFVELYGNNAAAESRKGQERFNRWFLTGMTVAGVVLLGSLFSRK
Sequence of Induced myeloid leukemia cell differentiation protein Mcl-1 (Q07820 whole entry): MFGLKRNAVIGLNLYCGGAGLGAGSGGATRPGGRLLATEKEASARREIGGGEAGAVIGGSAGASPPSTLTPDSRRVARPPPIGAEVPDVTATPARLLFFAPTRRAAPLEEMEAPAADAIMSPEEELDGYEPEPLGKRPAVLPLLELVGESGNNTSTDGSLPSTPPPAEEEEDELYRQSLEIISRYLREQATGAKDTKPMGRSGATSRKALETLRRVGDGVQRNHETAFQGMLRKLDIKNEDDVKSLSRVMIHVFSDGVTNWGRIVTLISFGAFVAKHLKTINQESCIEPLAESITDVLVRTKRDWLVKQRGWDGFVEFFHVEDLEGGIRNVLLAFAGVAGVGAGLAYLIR
T1 sequence (Q92731 whole entry): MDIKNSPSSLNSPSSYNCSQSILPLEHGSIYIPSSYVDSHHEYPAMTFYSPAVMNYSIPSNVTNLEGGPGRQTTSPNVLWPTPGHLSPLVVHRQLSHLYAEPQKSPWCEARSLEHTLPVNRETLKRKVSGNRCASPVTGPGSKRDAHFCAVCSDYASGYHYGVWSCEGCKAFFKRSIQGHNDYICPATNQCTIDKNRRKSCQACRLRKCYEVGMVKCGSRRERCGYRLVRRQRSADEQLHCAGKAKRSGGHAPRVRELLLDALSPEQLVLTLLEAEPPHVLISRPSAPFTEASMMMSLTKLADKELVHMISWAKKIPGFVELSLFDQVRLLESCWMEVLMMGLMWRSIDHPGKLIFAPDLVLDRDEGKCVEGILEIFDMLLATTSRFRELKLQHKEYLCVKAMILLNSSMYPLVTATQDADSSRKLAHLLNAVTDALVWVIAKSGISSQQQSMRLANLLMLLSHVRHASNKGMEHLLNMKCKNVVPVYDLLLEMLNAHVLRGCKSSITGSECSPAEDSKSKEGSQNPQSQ
Sequence of fMet-Leu-Phe receptor (P21462 whole entry): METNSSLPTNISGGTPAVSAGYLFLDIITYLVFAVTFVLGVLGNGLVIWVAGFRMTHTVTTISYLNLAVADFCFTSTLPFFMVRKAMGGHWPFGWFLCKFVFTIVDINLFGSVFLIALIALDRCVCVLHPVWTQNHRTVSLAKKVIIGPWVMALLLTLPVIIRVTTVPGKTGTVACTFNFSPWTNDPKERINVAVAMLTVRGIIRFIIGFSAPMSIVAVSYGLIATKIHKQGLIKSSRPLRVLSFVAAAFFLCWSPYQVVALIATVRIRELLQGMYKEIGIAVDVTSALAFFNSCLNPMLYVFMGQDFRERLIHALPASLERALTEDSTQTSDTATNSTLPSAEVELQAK
Sequence of Paired box protein Pax-8 (Q06710 whole entry): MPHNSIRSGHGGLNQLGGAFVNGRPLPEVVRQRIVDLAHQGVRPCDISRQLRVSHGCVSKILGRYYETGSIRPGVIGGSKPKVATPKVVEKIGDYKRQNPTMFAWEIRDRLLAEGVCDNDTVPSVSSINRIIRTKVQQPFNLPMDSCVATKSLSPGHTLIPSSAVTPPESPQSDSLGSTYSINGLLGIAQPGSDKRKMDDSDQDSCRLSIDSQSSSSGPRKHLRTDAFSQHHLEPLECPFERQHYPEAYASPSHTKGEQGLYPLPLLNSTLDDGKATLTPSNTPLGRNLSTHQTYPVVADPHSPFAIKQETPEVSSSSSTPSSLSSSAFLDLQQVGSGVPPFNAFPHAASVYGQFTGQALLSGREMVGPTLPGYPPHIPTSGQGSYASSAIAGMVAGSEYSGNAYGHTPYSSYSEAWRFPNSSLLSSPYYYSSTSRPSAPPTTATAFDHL
Sequence of Nonstructural protein 1 (Q194T2 whole entry): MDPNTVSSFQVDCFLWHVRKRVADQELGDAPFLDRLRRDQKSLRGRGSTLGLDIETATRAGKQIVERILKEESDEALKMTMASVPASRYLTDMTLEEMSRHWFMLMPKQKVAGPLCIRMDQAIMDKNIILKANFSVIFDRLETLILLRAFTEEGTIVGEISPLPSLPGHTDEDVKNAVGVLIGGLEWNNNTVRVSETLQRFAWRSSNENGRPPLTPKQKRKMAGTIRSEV

## Cc1ccc(-c2c(C)s/c(=N\C(=O)c3ccco3)n2C)cc1
[1]
  EC50: 0.469 µM (active)
[2]
  EC50: < 0.1 µM (active)
[3]
  EC50: 0.354 µM (active)
[4]
  EC50: > 12 µM (not active)

## CCNC(=O)c1ccc(C2SCC(=O)N2CCc2ccccc2)cc1 (centres undefined)
[5]
  EC50: > 50 µM (active)

## CCOC(=O)C1=C(C)NC(=O)NC1c1ccco1 (centres undefined)
[6]
  IC50: 9.28 µM (active)
[7]
  IC50: < 0.023 µM (not active)

## Cc1ccc(NC(Cc2cc(C)no2)c2ccccc2)cc1 (centres undefined)
[8]
  IC50: 9.47 µM (active)
[9]
  IC50: 19.8 µM (not active)

## O=C(CNc1cccc2ccccc12)N/N=C/c1ccc(C(=O)O)cc1
[10]
  IC50: 26.6 µM (not active)
[11]
  IC50: > 109 µM (not active)

## COc1cccc(-c2nc(O)c3c4c(sc3n2)CCCCC4)c1
[1]
  EC50: 0.37 µM (active)
[2]
  EC50: < 0.1 µM (active)
[12]
  EC50: 11.6 µM (active)
[3]
  EC50: 1.36 µM (active)
[4]
  EC50: 0.303 µM (active)

## Clc1ccc(C2CC(c3cccs3)n3ncnc3N2)cc1Cl (centres undefined)
[8]
  IC50: > 4.87 µM (active)
[9]
  IC50: 16 µM (not active)
[13]
  AC50: 7.3 µM (active)
[14]
  AC50: 56.8 µM (active)
[15]
  AC50: 7.81 µM (active)
[16]
  AC50: 7.08 µM (active)
[17]
  AC50: 6.95 µM (active)
[18]
  Ki: > 66.7 µM (inactive)

## Clc1ccc(OCCSc2nnnn2C2CCCCC2)cc1
[19]
  IC50: 9.04 µM (active)
[20]
  IC50: 14.2 µM (not active)

## COc1ccccc1N1CCN(Cc2cc(Br)c(O)c3ncccc23)CC1
[21]
  EC50: 19.4 µM (inconclusive)
[22]
  EC50: 8.13 µM (active)
[23]
  EC50: 0.482 µM (active)
[24]
  EC50: 2.22 µM (active)
[25]
  IC50: 6.32 µM (active)
[26]
  EC50: 1.34 µM (active)
[27]
  EC50: > 350 µM (not active)
[28]
  EC50: 6.15 µM (active)
[29]
  IC50: 15.4 µM (active)
[30]
  AC50: 3.95 µM (active)
[31]
  AC50: 1.82 µM (active)

## Cc1cc2cc(CNC(=O)C(C)Oc3ccccc3)ccc2n1C (centres undefined)
[5]
  EC50: > 50 µM (active)

## O=C1NC(=O)N(Cc2ccco2)C(=O)/C1=C/c1ccc(-c2cccc([N+](=O)[O-])c2)o1
[32]
  IC50: 6.08 µM (active)
[33]
  IC50: 22.4 µM (active)
[10]
  IC50: 9.6 µM (active)
[11]
  IC50: 17.6 µM (not active)

## N#Cc1ccc(-c2cccnc2)nc1SCc1ccc(Cl)c(Cl)c1
[19]
  IC50: 5.69 µM (active)
[20]
  IC50: 5.19 µM (active)

From ChEMBL document CHEMBL1201862, “PubChem BioAssay data set” (2004)
